{"source": "paper PMC11238919", "about": "(Virulence, 2024)", "key": {"SHP2": {"tested_on": "SHP2", "conditions": "ref [10]; cited from earlier work"}, "SHIP2-SH2 domain": {"target": "T1, SHIP2-SH2 domain (Homo sapiens, UniProt O15357)", "T1 sequence (O15357 21-117 limits assumed)": "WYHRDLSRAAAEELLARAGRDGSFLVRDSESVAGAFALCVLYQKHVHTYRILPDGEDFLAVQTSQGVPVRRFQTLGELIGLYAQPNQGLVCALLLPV", "experiment": "SPR affinity of EPIpYA peptides to immobilized SHIP2-SH2 domain", "format": "binding", "conditions": "EPIpYA-D versus EPIpYA-C"}, "SHIP2": {"tested_on": "SHIP2", "conditions": "ref [15]; cited from earlier work"}, "[1]": {"tested_on": "hummingbird phenotype of infected cells", "experiment": "Hummingbird phenotype of infected cells", "format": "cell-based", "conditions": "SHP099 10 µM added 48 h before infection"}, "[2]": {"target": "T2, His-tagged SHIP2-SH2 domain (UniProt O15357 21-117)", "T2 sequence (looked up)": "T1 sequence (O15357 21-117 limits assumed)", "experiment": "SPR"}}, "note": "Values joined by “and” are separate entries in the source; they are usually repeats but may differ in a detail not shown here. Identical values can stand only once. Where no end group is shown, it is not given here. [ ]: non-standard residue; d: D form. pY = N[C@@H](Cc1ccc(OP(=O)(O)O)cc1)C(=O)O"}
{"molecule": "EPIYA-D: CagA^E-specific EPIYA-D segment (literature)", "values": [{"measurement": "binding to SHP2, EPIYA-D versus EPIYA-C", "setting": "SHP2", "result": "binds to SHP2 more strongly than the EPIYA-C segment"}]}
{"molecule": "CC[C@H](C)[C@H](NC(=O)[C@@H](NC(=O)[C@H](C)NC(=O)[C@H](Cc1ccc(OP(=O)(O)O)cc1)NC(=O)[C@@H](NC(=O)[C@@H]1CCCN1C(=O)[C@H](CCC(=O)O)NC(=O)[C@@H]1CCCN1C(=O)[C@H](CO)NC(=O)[C@H](C)N)[C@@H](C)CC)[C@@H](C)O)C(=O)N[C@@H](CC(=O)O)C(=O)N[C@@H](Cc1ccccc1)C(=O)N[C@@H](CC(=O)O)C(=O)O", "note": "[EPIpYA-D]", "values": [{"measurement": "KD approximately 10 times lower than that of EPIpYA-C", "setting": "SHIP2-SH2 domain", "result": "approximately 10 times"}]}
{"molecule": "EPIYA-C: EPIYA-C motif of CagA^W (literature)", "values": [{"measurement": "binding to SHIP2, EPIYA-C versus EPIYA-D", "setting": "SHIP2", "result": "binds slightly strongly to EPIYA-C than EPIYA-D"}]}
{"molecule": "CC1(N)CCN(c2cnc(-c3cccc(Cl)c3Cl)c(N)n2)CC1", "note": "[SHP099]", "values": [{"measurement": "differences in morphological changes between strain groups", "setting": "[1]", "result": "the differences in the morphological changes between the groups were not obvious"}]}
{"molecule": "VSPEPI[pY]ATIDDL", "note": "[tyrosine-phosphorylated EPIYA-C peptide (VSPEPIpYATIDDL)]", "values": [{"measurement": "Kd", "setting": "[2]", "result": 8350, "unit": "nM"}]}
{"molecule": "ASPEPI[pY]ATIDFD", "note": "[tyrosine-phosphorylated EPIYA-D peptide (ASPEPIpYATIDFD)]", "values": [{"measurement": "Kd", "setting": "[2]", "result": "890 nM and 896 nM"}]}
